According to patent US20100152150A1, “THE APPLICATION OF MARINE STEROID IN PREPARING THE MEDICINE OF TREATING NEURONS DAMAGING” (priority 2006, published 2010):

Columns and labels:
[1] = system: New Zealand white rabbits with spinal cord ischemia; assay: Abdominal aorta clipping induced rabbit spinal cord ischemia model; assay type: in vivo; settings: 8 mg/Kg intravenous 30 min before ischemia
Description: Method: Preparation of spinal cord ischemia model.
24 male New Zealand white rabbits were divided evenly into 3 groups (n=8):
YC-1 group: 30 min before spinal cord ischemia, 8 mg/Kg YC-1 was intravenous injected through the rabbit's ear. DMSO group: same volume of DMSO (1 ml/Kg) was injected in the same way.
Sham group: the abdominal aorta was exposed but wasn't clipped.
Referring to Johnson etc, the model was prepared as follows:
(1) The rabbits drinked freely but fasted one night before the operation.
(2) The rabbit was anesthetized by injecting 3% sodium pentobarbital (30 mg/Kg) by ear intravenous. On the other side of the ear a vein-detaining needle (24 G) was set for medicine and other fluid infusion.
(3) An artery-detaining needle (24 G) was set in the right ear artery for monitoring the proximal arterial pressure and blood sampling during the operation.
(4) An artery-detaining needle (24 G) was set in a femoral artery for monitoring the distal arterial pressure during the operation.
(5) The rabbit was supinely fixed and incised at the median abdomen; the abdominal aorta was exposed.
(6) Injected heparin (150 U/Kg) through the vein-detaining needle, then the abdominal aorta was clipped at the 0.5-1.0 cm spot below origin of the left renal artery to cause spinal cord ischemia.
(7) Once the abdominal aorta was blocked, the distal arterial pressure decreased immediately and the femoral arterial pulsation disappeared.
(8) The clip was removed 20 min after ischemia and the abdomen was sutured.
(9) Then intramuscularly injected 40,000 U gentamicin, the rabbit was returned back to cage and observed for 48 h.
(10) The proximal arterial pressure, distal arterial pressure and heart rate (Spacelab, US) were continuously monitored during the operation. Rectum temperature was maintained at 38.5±0.5° by using heating pad and roasting lamp.
(11) Blood gas (AVL-2, Switzerland) and glucose (One Touch II, USA) were monitored by ear artery blood sampling 10 min before ischemia, 10 min after ischemia and 10 min after reperfusion.

[2] = system: rat cerebellar granule neurons (CGNs); assay: Glutamic acid (Glu) induced death of in vitro cultured cerebellar granule neurons; assay type: cell-based
Description: (1) Isolatation and primary culture of rat CGNs.
(2) Morphology observation of neuron cell body and processes under phase contrast microscopy.
(3) Analysis of neuronal metabolic activity and viability using fluorescein diacetate (FDA) staining.

[3] = system: rat cerebellar granule neurons (CGNs); assay: Hypoxia/reoxygenation (H/R) induced death of in vitro cultured cerebellar granule neurons; assay type: cell-based; settings: for CGNs morphology under inverted fluorescence microscope: pre-treated 3 h with 10 μM MK801 or 12 μM YC-1 or 12 μM YC-2, then 3 h hypoxia and 24 h reoxygenation
Description: 1) Culture of Rat Cerebellar Granule Neurons (CGNs)
According to Yan, etc, the neurons were prepared as follows:
(1) A clean 7-8 d SD rat weighing about 15-20 g was taken and the cerebella was separated under sterile condition.
(2) The meninges and vessels were gotten rid of in Kreb's anatomy solution (Ca^2+ and Mg^2+ free).
(3) The cerebella was sheared into pieces of 1 mm^3 with ophthalmic scissors.
(4) Digested in 0.25 g/L trypsin solution for 15 min at 37.
(5) The digestion was stopped with solution containing 0.5 g/L trypsin inhibitor and 0.05 g/L Dnase I and pipetted up and down to get single cell suspension.
(6) The single cell suspension was centrifuged at 200 g for 5 min, the precipitation was rinsed once with rinse solution.
(7) Span down again at 200 g for 5 min, the supernatant was discarded.
(8) The cell pellet was diluted to cell density of 1.5-1.8×10^6 cells/ml with BME medium containing 10% (v/v) FBA and 25 mM KCl.
(9) They were inoculated into cell culture dishes pre-coated with polylysine and incubated at 370 incubator with 5% CO2.
(10) Twenty-four hours after inoculation, 10 μmol/L Ara-C was added to inhibit non-neuron cells' growth and proliferation and to make the purity of CGNs above 95%.
(11) Glucose was added to 5 mM on day 7 incubation to supplement energy needed by cell metabolism.
(12) The experiment on day 8.
2). Establishment of CGNs Hypoxia/Reoxygenation (H/R) Injury Model
Referred to Seko (Seko Y, To be K, Ueki K, et al. Hypoxia and hypoxia/reoxygenation activate Raf-1, mitogen-activated protein kinase kinase, mitogen-activated protein kinases, and S6 kinase in cultured rat cardiac myocytes. Circ Res. 1996 January; 78(1):82-90) etc for the establishment method:
(1) On day 8, the treated CGNs were put in airtight box with oxygen consumption reagent and indicator and incubated at 37° for 3 h.
(2) The cells were transferred to 370 incubator with 5% CO2 for reoxygenation treatment.
(3). Cell morphological observation and neuron viability measurement
The following were done referring to Yan (Yan G M, Irwin R P, Lin S Z, et al. Diphenylhydantoin induces apoptotic cell death of cultured rat cerebellar granule neurons. J Pharmacol Exp Ther, 1995, 274(2): 983-8) et al.:
(1) CGNs were cultured in 35 mm dishes, on day 8, the medium was removed after various factors treatment, the cells were rinsed twice with 4 PBS containing Ca^2+ and Mg^2+.
(2) The cells were fixed with 40 g/L paraformaldehyde (40, dissolved in PBS) for 10 min.
(3) The fixation solution was removed, the cells were rinsed twice with distilled water, air dried at 4°.
(4) The cell morphological change was observed and randomly photographed under inverted fluorescence microscope (Olympus).

[4] = system: SD rats with permanent middle cerebral artery occlusion (MCAO); assay: MCAO induced rat cerebral ischemia model; assay type: in vivo
Description: Method: Preparation of Rat Middle Cerebral Artery Occlusion (MCAO) Model
25 healthy male SD rats were divided into 3 groups randomly: YC-1 group (n=11): 10 min, 6 h, 24 h and 7 d after occluding the middle cerebral artery, 12 mg/Kg YC-1 was continuously injected intraperitoneally. DMSO group (n=11): same volume of DMSO (1 ml/Kg) was injected in the same way. Sham group (n=3): just very short intraluminal thread was inserted and didn't occlude the MCA.
The following method was a modification of Zea Longa's method (Longa E Z, Weinstein P R, Carlson S, Cummins R. Reversible middle cerebral artery occlusion without craniectomy in rats. Stroke, 1989, 20: 84-91).
(1) The rats drinked freely but fasted one night before the operation.
(2) 10 min before anesthesia, atropine sulfate (0.5 mg/Kg) was intraperitoneally (ip) injected.
(3) Narcotized the rat with ip injected 10% chloral hydrate, 3.5 ml anesthetic per Kg rat; The areflexia of hindlimb retraction and corneal were used as anesthesia index. […]
(7) Rectum temperature was measured by using Meikangti electronic temperature measure instrument the whole process and it was strictly controlled at 36.5-37.5°. […]

[5] = system: rat cerebellar granule neurons (CGNs); assay: Repolarization (low potassium, LK) induced death of in vitro cultured cerebellar granule neurons; assay type: cell-based
Description: The methods for rat CGNs cell culture, cellular morphologic observation and neuronal viability measurement were the same as above. Then check the in vitro cultured cerebellar granule neurons death through agarose gel electrophoresis according to reference:
(1) CGNs in […] dishes were inoculated.
(2) On day 8, 24 h after adding various medicines, the medium was removed, the cells were rinsed twice with PBS.
(3) The collected cells were spun down with a low temperature high speed centrifuge (Biofuge22R, Heraeus, Germany) at 5000 rpm, 4° for 5 min.
(4) the cell pellet was resuspended with 600 μl buffer containing 10 mmol/L Tris-HCl, 10 mmol/L EDTA and 2 g/L Triton X-100 (pH 7.5) and incubated for 15 min.
(6) The supernatant was extracted once with equal volume of phenol and spun down.
(7) The supernatant was extracted once with equal volume of phenol-chloroform (1:1), spun down.
(8) The supernatant was taken, 300 mmol/L Sodium Acetate and equal volume of isopropanol were added and precipitated for overnight.
(9) The pellet was spun down and rinsed 2-3 times with 70% ethanol.
(10) After drying, some TE (Tris 10 mmol L^−1, EDTA 1.0 mmol L^−1, pH 7.4, and 0.6 g·L^−1 RNase A) were added and incubated at 37° for 30 min.
(11) The samples were analyzed with 20 g/L agarose gel electrophoresis for 1 h.
(12) Dyed with ethidium bromide and photographed under UV light.

| Compound | rabbits able to stand (hindlimb function) ([1]; rabbit spinal cord ischemia 20 min, n=8, no rabbit in DMSO group could stand) | neurological function score ([1]; rabbit spinal cord ischemia, each observation time point, versus DMSO group, p<0.05) | lumbar spinal cord injury (histopathological examination) ([1]; rabbit spinal cord ischemia, versus DMSO group) | number of normal spinal cord anterior horn neurons ([1]; rabbit spinal cord ischemia, versus DMSO group, p<0.01) | Glu induced CGNs apoptosis (phase contrast microscopy) ([2]; 12 μM added 1 h before 150 μM Glu, observed 24 h later) | CGNs' viability (FDA staining) ([2]; 12 μM, 150 μM Glu 24 h, Glu control group 29.5±8.23%) | neuronal viability (FDA dye) ([3]; 10 μM MK801 or 12 μM YC-1 or 12 μM YC-2, then H/R, H/R alone 16.56±3.21%) | nuclear morphology (Hoechst33258 dye) ([3]; 12 μM, then H/R treatment) | CGNs morphology under inverted fluorescence microscope [3] | brain tissue colour and morphology by visual inspection ([4]; rat MCAO, 12 mg/Kg intraperitoneally, DMSO group showed obvious pallor and swelling) | infarct size (TTC dye) ([4]; rat permanent MCAO, 12 mg/Kg YC-1 intraperitoneally at 10 min, 6 h, 24 h and 7 d after occlusion, DMSO group 62±8%) | CGNs morphology (cell bodies and processes) ([5]; 12 μM added 3 h before and at change to 5 mM KCl serum free medium, 24 h) | CGNs survived (FDA staining) ([5]; 12 μM added 3 h before and at change to 5 mM KCl serum free medium, 24 h, low potassium alone 40.2±14.04%) | DNA fragments produced from LK induced CGNs apoptosis (agarose gel electrophoresis) ([5]; FIG. 18) | viability at 10 µM ([3]; Rattus norvegicus, Neuron, 10 μM MK801 or 12 μM YC-1 or 12 μM YC-2, then H/R, H/R alone 16.56±3.21%, read-out: neuronal viability (FDA dye)) |
| --- | --- | --- | --- | --- | --- | --- | --- | --- | --- | --- | --- | --- | --- | --- | --- |
| C=C(CC[C@@H](C)[C@H]1CC[C@H]2[C@@H]3C[C@@H](O)[C@@]4(O)C[C@@H](O)CC[C@]4(CO)[C@H]3CC[C@]12C)C(C)C [YC-1, 24-methylene-cholest-3β,5α,6β,19-tetrol] | Six rabbits in the CPA (YC-1) group could stand | obviously higher than that in DMSO group | obviously relieved | increased evidently | obviously inhibited Glu induced CGNs apoptosis | 92.6±2.59% | 84.29±1.26% | Most CGNs showed normal nuclear morphology and even chromatin distribution | Most CGNs cell body kept intact, plump and lucent | no obvious pallor and swelling | 32±11% | most CGNs kept intact cell bodies and processes | 94.3±14.02% | can reduce DNA fragments | – |
| C[C@]12N[C@H](Cc3ccccc31)c1ccccc12 [MK801, reference compound] | – | – | – | – | – | – | – | – | Most CGNs cell body kept intact, plump and lucent | – | – | – | – | – | 86.7 ± 3.21% |
